Assay results as given in ChEMBL document CHEMBL5625225, “Vinylphosphonate-based cyclic dinucleotides enhance STING-mediated cancer immunotherapy” (Eur J Med Chem, 2023).
pEC50: −log10 of the molar value. Blank lines part the entries; values can stand above or below the compound they belong to.

What was measured:
[1] = molecular target: Stimulator of interferon genes protein (Homo sapiens, UniProt Q86WV6, G230A/R293Q/R71H); experiment: Agonist activity at STING R71H/G230A/R293Q mutant (unknown origin) expressed in digitonin -permeabilized HEK293T cells preincubated for 30 mins followed by washout and measured after 5 hrs by Bright-glo luciferase assay; format: cell-based
Chain of Stimulator of interferon genes protein (Homo sapiens, UniProt Q86WV6, G230A/R293Q/R71H) (Q86WV6 whole entry R71H/G230A/R293Q): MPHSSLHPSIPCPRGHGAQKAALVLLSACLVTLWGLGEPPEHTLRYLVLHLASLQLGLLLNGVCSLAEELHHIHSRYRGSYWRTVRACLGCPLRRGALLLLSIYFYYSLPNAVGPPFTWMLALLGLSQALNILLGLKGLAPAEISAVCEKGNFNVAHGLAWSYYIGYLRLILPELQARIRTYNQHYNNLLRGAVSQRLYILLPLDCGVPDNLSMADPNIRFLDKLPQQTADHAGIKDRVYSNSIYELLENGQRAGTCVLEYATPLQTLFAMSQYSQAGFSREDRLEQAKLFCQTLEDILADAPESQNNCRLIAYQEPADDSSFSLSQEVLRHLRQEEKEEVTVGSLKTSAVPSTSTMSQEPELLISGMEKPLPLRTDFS

[2] = molecular target: Stimulator of interferon genes protein (Homo sapiens, UniProt Q86WV6, G230A/R293Q); experiment: Agonist activity at STING G230A/R293Q mutant (unknown origin) expressed in digitonin -permeabilized HEK293T cells preincubated for 30 mins followed by washout and measured after 5 hrs by Bright-glo luciferase assay; format: cell-based
Chain of Stimulator of interferon genes protein (Homo sapiens, UniProt Q86WV6, G230A/R293Q) (Q86WV6 whole entry G230A/R293Q): as the sequence (Q86WV6 whole entry R71H/G230A/R293Q) above, with H71R counted along it

[3] = Agonist activity at STING R232H mutant (unknown origin) expressed in digitonin -permeabilized HEK293T cells preincubated for 30 mins followed by washout and measured after 5 hrs by Bright-glo luciferase assay; format: cell-based; settings: Homo sapiens, HEK-293T
[4] = molecular target: Stimulator of interferon genes protein (Homo sapiens, UniProt Q86WV6, R293Q); experiment: Agonist activity at STING R293Q mutant (unknown origin) expressed in digitonin -permeabilized HEK293T cells preincubated for 30 mins followed by washout and measured after 5 hrs by Bright-glo luciferase assay; format: cell-based
Chain of Stimulator of interferon genes protein (Homo sapiens, UniProt Q86WV6, R293Q) (Q86WV6 whole entry R293Q): as the sequence (Q86WV6 whole entry R71H/G230A/R293Q) above, with H71R, A230G counted along it

[5] = test system: Stimulator of interferon genes protein (Homo sapiens), Q86WV6 [UNDEFINED MUTATION]; settings: filed as agonist
Chain of Stimulator of interferon genes protein (Homo sapiens), Q86WV6 [UNDEFINED MUTATION] (Q86WV6 whole entry, looked up, stated change not applied): as the sequence (Q86WV6 whole entry R71H/G230A/R293Q) above, with H71R, A230G, Q293R counted along it
Description: Binding affinity to STING R232 mutant (unknown origin) assessed as change in melting temperature by differential scanning fluorimetry analysis

[6] = test system: Stimulator of interferon genes protein (Homo sapiens), Q86WV6 [G230A,R293Q]; settings: filed as agonist
Chain of Stimulator of interferon genes protein (Homo sapiens), Q86WV6 [G230A,R293Q] (Q86WV6 whole entry G230A/R293Q): as the sequence (Q86WV6 whole entry R71H/G230A/R293Q) above, with H71R counted along it
Description: Binding affinity to STING G230A/R293Q mutant (unknown origin) assessed as change in melting temperature by differential scanning fluorimetry analysis

[7] = molecular target: T1, Stimulator of interferon genes protein (Homo sapiens, UniProt Q86WV6); experiment: Agonist activity at STING R232 mutant (unknown origin) expressed in digitonin -permeabilized HEK293T cells preincubated for 30 mins followed by washout and measured after 5 hrs by Bright-glo luciferase assay; format: cell-based
Target sequence in this assay (Q86WV6 whole entry, looked up, stated change not applied): as the sequence (Q86WV6 whole entry R71H/G230A/R293Q) above, with H71R, A230G, Q293R counted along it

[8] = molecular target: T1, Stimulator of interferon genes protein; experiment: Agonist activity at wild type STING (unknown origin) expressed in HEK293T cells preincubated for 30 mins followed by washout and measured after 6.5 hrs by Bright-glo luciferase assay; format: cell-based
Target sequence in this assay (Q86WV6 whole entry): as the sequence (Q86WV6 whole entry R71H/G230A/R293Q) above, with H71R, A230G, Q293R counted along it

[9] = molecular target: T1, Stimulator of interferon genes protein; experiment: Agonist activity at wild type STING (unknown origin) expressed in HEK293T cells measured after 7 hrs by Bright-glo luciferase assay; format: cell-based
Target sequence in this assay (Q86WV6 whole entry): as the sequence (Q86WV6 whole entry R71H/G230A/R293Q) above, with H71R, A230G, Q293R counted along it

[10] = Induction of cytokine production in human PBMC cells assessed as TNF-alpha level incubated for 60 mins followed by washout and measured after 15 hrs; format: functional, cell-based
[11] = Induction of cytokine production in human PBMC cells assessed as IFN-gamma level incubated for 60 mins followed by washout and measured after 15 hrs; format: functional, cell-based
[12] = Induction of cytokine production in human PBMC cells assessed as IFN-alpha level incubated for 60 mins followed by washout and measured after 15 hrs; format: functional, cell-based

pEC50 [1]: 7.22
pEC50 [2]: 7.10
pEC50 [3]: 6.49
pEC50 [4]: 6.34
ΔTm [5]: 9.4 °C
ΔTm [6]: 15.2 °C
pEC50 [7]: 7.70
Compound: Nc1nc2c(ncn2[C@@H]2O[C@@H]3/C=C/P(=O)(O)O[C@H]4[C@@H](F)[C@H](n5cnc6c(N)ncnc65)O[C@@H]4COP(=O)(O)O[C@H]3[C@H]2F)c(=O)[nH]1

pEC50 [1]: 6.02
pEC50 [2]: 6.02
pEC50 [3]: 5.43
pEC50 [4]: 5.06
ΔTm [5]: 3.4 °C
ΔTm [6]: 8.8 °C
pEC50 [7]: 6.30
Compound: Nc1nc2c(ncn2[C@@H]2O[C@@H]3/C=C/P(=O)(O)O[C@H]4[C@@H](F)[C@H](n5cnc6c(=O)[nH]c(N)nc65)O[C@@H]4COP(=O)(O)O[C@H]3[C@H]2F)c(=O)[nH]1

pEC50 [1]: 6.85
pEC50 [2]: 6.89
pEC50 [3]: 5.02
pEC50 [4]: 5.53
ΔTm [5]: 5.2 °C
ΔTm [6]: 11.4 °C
pEC50 [7]: 6.92
Compound: Nc1nc2c(ncn2[C@H]2C[C@@H]3OP(=O)(O)/C=C/[C@H]4O[C@@H](n5cnc6c(N)ncnc65)[C@H](F)[C@@H]4OP(=O)(O)OC[C@H]3O2)c(=O)[nH]1

pEC50 [1]: 6.55
pEC50 [2]: 6.40
pEC50 [3]: < 4.35
pEC50 [4]: 5.18
ΔTm [5]: 2.3 °C
ΔTm [6]: 8.2 °C
pEC50 [7]: 6.12
Compound: Nc1ncnc2c1ncn2[C@@H]1O[C@@H]2COP(=O)(O)O[C@H]3C[C@H](n4cnc5c(N)ncnc54)O[C@@H]3/C=C/P(=O)(O)O[C@H]2[C@H]1F

pEC50 [1]: 6.46
pEC50 [2]: 6.54
pEC50 [3]: 4.59
pEC50 [4]: 5.38
ΔTm [5]: 4.8 °C
ΔTm [6]: 11.9 °C
pEC50 [7]: 6.15
Compound: Nc1nc2c(ncn2[C@@H]2O[C@@H]3COP(=O)(O)O[C@H]4C[C@H](n5cnc6c(N)ncnc65)O[C@@H]4/C=C/P(=O)(O)O[C@H]3[C@H]2F)c(=O)[nH]1

pEC50 [1]: 6.62
pEC50 [2]: 6.41
pEC50 [3]: < 4.35
pEC50 [4]: < 4.35
ΔTm [5]: 0.9 °C
ΔTm [6]: 4.5 °C
pEC50 [7]: 4.97
Compound: Nc1nc2c(ncn2[C@H]2C[C@@H]3OP(=O)(O)/C=C/[C@H]4O[C@@H](n5cnc6c(N)ncnc65)C[C@@H]4OP(=O)(O)OC[C@H]3O2)c(=O)[nH]1

pEC50 [1]: 6.36
pEC50 [2]: 6.68
pEC50 [3]: < 4.35
pEC50 [4]: < 4.35
ΔTm [5]: 1.9 °C
ΔTm [6]: 8.6 °C
pEC50 [7]: 6.11
Compound: Nc1nc2c(ncn2[C@H]2C[C@@H]3OP(=O)(O)OC[C@H]4O[C@@H](n5cnc6c(N)ncnc65)C[C@@H]4OP(=O)(O)/C=C/[C@H]3O2)c(=O)[nH]1

pEC50 [8]: < 3.70
pEC50 [1]: 6.57
pEC50 [2]: 6.41
pEC50 [3]: < 4.35
pEC50 [9]: 4.14
pEC50 [4]: 5.82
ΔTm [5]: 2.7 °C
ΔTm [6]: 8.9 °C
pEC50 [7]: 6.55
Compound: Nc1ncnc2c1ncn2[C@@H]1O[C@@H]2/C=C/P(=O)(O)O[C@H]3C[C@H](n4cnc5c(N)ncnc54)O[C@@H]3COP(=O)(O)O[C@H]2[C@H]1F

pEC50 [8]: 7.52
pEC50 ([10]; pbmc): 6.48
pEC50 [9]: 7.66
pEC50 ([11]; pbmc): 6.12
pEC50 ([12]; pbmc): 6.46
Compound: CC(C)(C)C(=O)OCOP1(=O)/C=C/[C@H]2O[C@@H](n3cnc4c(N)ncnc43)[C@H](F)[C@@H]2OP(=O)(OCOC(=O)C(C)(C)C)OC[C@H]2O[C@@H](n3cnc4c(N)ncnc43)[C@H](F)[C@@H]2O1 (stereo in doubt; 11B)

pEC50 [8]: 5.00
pEC50 [9]: 4.92
Compound: CC(C)(C)C(=O)OCOP1(=O)/C=C/[C@H]2O[C@@H](n3cnc4c(N)ncnc43)C[C@@H]2OP(=O)(OCOC(=O)C(C)(C)C)OC[C@H]2O[C@@H](n3cnc4c(N)ncnc43)[C@H](F)[C@@H]2O1 (stereo in doubt; 24A)

pEC50 [8]: 6.26
pEC50 [9]: 6.17
Compound: CC(C)(C)C(=O)OCOP1(=O)/C=C/[C@H]2O[C@@H](n3cnc4c(N)ncnc43)C[C@@H]2OP(=O)(OCOC(=O)C(C)(C)C)OC[C@H]2O[C@@H](n3cnc4c(N)ncnc43)[C@H](F)[C@@H]2O1 (stereo in doubt; 24B)

pEC50 [8]: 6.68
pEC50 [9]: 6.59
Compound: CC(C)(C)C(=O)OCOP1(=O)/C=C/[C@H]2O[C@@H](n3cnc4c(N)ncnc43)C[C@@H]2OP(=O)(OCOC(=O)C(C)(C)C)OC[C@H]2O[C@@H](n3cnc4c(N)ncnc43)[C@H](F)[C@@H]2O1 (stereo in doubt; 24C)

Continued, compound first:

Compound: CC(C)(C)C(=O)OCOP1(=O)/C=C/[C@H]2O[C@@H](n3cnc4c(N)ncnc43)[C@H](F)[C@@H]2OP(=O)(OCOC(=O)C(C)(C)C)OC[C@H]2O[C@@H](n3cnc4c(N)ncnc43)[C@H](F)[C@@H]2O1 (stereo in doubt; 11A)
pEC50 [8]: 6.89
pEC50 [9]: 7.22

Compound: CC(C)OC(=O)OCOP1(=O)/C=C/[C@H]2O[C@@H](n3cnc4c(N)ncnc43)[C@H](F)[C@@H]2OP(=O)(OCOC(=O)OC(C)C)OC[C@H]2O[C@@H](n3cnc4c(N)ncnc43)[C@H](F)[C@@H]2O1 (stereo in doubt; 12A)
pEC50 [8]: 5.10
pEC50 [9]: 5.02

Compound: CC(C)OC(=O)OCOP1(=O)/C=C/[C@H]2O[C@@H](n3cnc4c(N)ncnc43)[C@H](F)[C@@H]2OP(=O)(OCOC(=O)OC(C)C)OC[C@H]2O[C@@H](n3cnc4c(N)ncnc43)[C@H](F)[C@@H]2O1 (stereo in doubt; 12B)
pEC50 [8]: 5.58
pEC50 [9]: 5.90

Compound: CC(C)OC(=O)OCOP1(=O)/C=C/[C@H]2O[C@@H](n3cnc4c(N)ncnc43)[C@H](F)[C@@H]2OP(=O)(OCOC(=O)OC(C)C)OC[C@H]2O[C@@H](n3cnc4c(N)ncnc43)[C@H](F)[C@@H]2O1 (stereo in doubt; 12C)
pEC50 [8]: 6.60
pEC50 ([10]; Homo sapiens, PBMC): 6.60
pEC50 [9]: 7.15
pEC50 ([11]; Homo sapiens, PBMC): 5.89
pEC50 ([12]; Homo sapiens, PBMC): 6.22

Compound: CCC(C)(C)C(=O)OCOP1(=O)/C=C/[C@H]2O[C@@H](n3cnc4c(N)ncnc43)[C@H](F)[C@@H]2OP(=O)(OCOC(=O)C(C)(C)CC)OC[C@H]2O[C@@H](n3cnc4c(N)ncnc43)[C@H](F)[C@@H]2O1 (stereo in doubt; 13A)
pEC50 [8]: 6.35
pEC50 [9]: 6.82

Compound: CCC(C)(C)C(=O)OCOP1(=O)/C=C/[C@H]2O[C@@H](n3cnc4c(N)ncnc43)[C@H](F)[C@@H]2OP(=O)(OCOC(=O)C(C)(C)CC)OC[C@H]2O[C@@H](n3cnc4c(N)ncnc43)[C@H](F)[C@@H]2O1 (stereo in doubt; 13B)
pEC50 [8]: 7.46
pEC50 [9]: 7.85

Compound: CC1(C(=O)OCOP2(=O)/C=C/[C@H]3O[C@@H](n4cnc5c(N)ncnc54)[C@H](F)[C@@H]3OP(=O)(OCOC(=O)C3(C)CCCCC3)OC[C@H]3O[C@@H](n4cnc5c(N)ncnc54)[C@H](F)[C@@H]3O2)CCCCC1 (stereo in doubt; 14A)
pEC50 [8]: 6.30
pEC50 [9]: 6.60

Compound: CC1(C(=O)OCOP2(=O)/C=C/[C@H]3O[C@@H](n4cnc5c(N)ncnc54)[C@H](F)[C@@H]3OP(=O)(OCOC(=O)C3(C)CCCCC3)OC[C@H]3O[C@@H](n4cnc5c(N)ncnc54)[C@H](F)[C@@H]3O2)CCCCC1 (stereo in doubt; 14B)
pEC50 [8]: 6.65
pEC50 ([10]; pbmc): 6.85
pEC50 [9]: 7.10
pEC50 ([11]; pbmc): 6.60
pEC50 ([12]; pbmc): 6.52

Compound: CCCCCCCC(=O)OCOP1(=O)/C=C/[C@H]2O[C@@H](n3cnc4c(N)ncnc43)[C@H](F)[C@@H]2OP(=O)(OCOC(=O)CCCCCCC)OC[C@H]2O[C@@H](n3cnc4c(N)ncnc43)[C@H](F)[C@@H]2O1 (stereo in doubt; 15A)
pEC50 [8]: 6.46
pEC50 [9]: 7.70

Compound: CCCCCCCC(=O)OCOP1(=O)/C=C/[C@H]2O[C@@H](n3cnc4c(N)ncnc43)[C@H](F)[C@@H]2OP(=O)(OCOC(=O)CCCCCCC)OC[C@H]2O[C@@H](n3cnc4c(N)ncnc43)[C@H](F)[C@@H]2O1 (stereo in doubt; 15B)
pEC50 [8]: 8.40
pEC50 ([10]; pbmc): 7.15
pEC50 [9]: 8.52
pEC50 ([11]; pbmc): 7.22
pEC50 ([12]; Homo sapiens, PBMC): 7.10
